The values that follow come from patent publication US8513430B2, “Substituted thiazol-2-ylamine derivatives, pharmaceutical compositions, and methods of use as 11-beta HSD1 modulators” (High Point Pharmaceuticals, LLC, priority 2010, dated 2013).

pIC50: −log10 of the molar value.

For the first test, the target named is T1, 11βHSD1 (Homo sapiens, UniProt P28845).
T1 construct: from tissue
T1 sequence (P28845 whole entry): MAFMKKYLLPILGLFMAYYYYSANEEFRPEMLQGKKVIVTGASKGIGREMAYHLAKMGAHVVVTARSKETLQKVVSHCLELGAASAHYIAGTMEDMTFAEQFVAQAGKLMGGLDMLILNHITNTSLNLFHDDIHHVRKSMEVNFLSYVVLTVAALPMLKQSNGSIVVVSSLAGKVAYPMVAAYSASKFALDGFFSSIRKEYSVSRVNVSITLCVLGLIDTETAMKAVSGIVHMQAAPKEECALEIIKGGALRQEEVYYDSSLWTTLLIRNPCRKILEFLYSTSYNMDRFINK
In words: in vitro 11β-HSD assay (human microsomes, CISBIO cortisol kit). It is filed as biochemical. As to conditions: 160 nM cortisone, 200 μM NADPH, 2 h at 37° C., pH 6.0. As to the method: The following assay methods were used to identify and evaluate compounds of Formula (I) that are effective in modulating 11βHSD1.
CISBIO Cortisol kit #62CO2PEB
Assay Buffer: (water based) used for Enzyme, Compounds and Microsomes: 20 mM Tris, 5 mM EDTA, and pH 6.0.
Enzyme Buffer: 333 μM NADPH (FAC 200 μM) and 266 nM Cortisone (FAC 160 nM).
1) Test compounds (10 mM stock in 100% DMSO) were diluted in Assay Buffer (see below) with 1% DMSO FAC and placed into the 96-well plate. Test compounds were typically tested over 10 concentrations (30 μM-0.3 nM).
2) 30 μL Enzyme Buffer, 10 μL Test Compound, 10 μL human microsomes were added to the test compounds and mixed gently by tapping the plate.
3) The plates were incubated for 2 h at 37° C.
4) 25 μL anti Cortisol-K and 25 μL Cortisol d2 were added to the plate and mixed gently by tapping the plate.
5) The plates were incubated at room temperature for 2 h.
6) The plates were read on an Envision model 2120 Perkin-Elmer using emission filters #205 and #217.
In general, EC50 refers to the midpoint of the concentration-response curve. Read a low EC50 as a more potent agent. Regarding `O=C(N[C@H]1C2CC3CC1C[C@](O)(C3)C2)c1csc(NCc2ccco2)n1` [Example 1, 2-[(Furan-2-ylmethyl)-amino]-thiazole-4-carboxylic acid [(E)-5-hydroxy-adamantan-2-yl]-amide], the EC50 was found to be 360 nM.
Still for that read-out and setting: the result for `O=C(N[C@H]1C2CC3CC1C[C@](O)(C3)C2)c1csc(Nc2ccc(Cl)cn2)n1` [Example 2, 2-(5-Chloro-pyridin-2-ylamino)-thiazole-4-carboxylic acid [(E)-5-hydroxyadamantan-2-yl]-amide] reads 31 nM.
Same read-out and setting: the result for `O=C(N[C@H]1C2CC3CC1C[C@](O)(C3)C2)c1csc(Nc2ccncc2)n1` [Example 3, 2-(Pyridin-4-ylamino)-thiazole-4-carboxylic acid [(E)-5-hydroxy-adamantan-2-yl]-amide] reads 110 nM.
Still for that read-out and setting: for `O=C(N[C@H]1C2CC3CC1C[C@](O)(C3)C2)c1csc(Nc2cccnc2)n1` [Example 4, 2-(Pyridin-3-ylamino)-thiazole-4-carboxylic acid [(E)-5-hydroxy-adamantan-2-yl]-amide] the value was 26 nM; for `O=C(N[C@H]1C2CC3CC1C[C@](O)(C3)C2)c1csc(Nc2ccccn2)n1` [Example 5, 2-(Pyridin-2-ylamino)-thiazole-4-carboxylic acid [(E)-5-hydroxy-adamantan-2-yl]-amide], 4000 nM.
With `O=C(N[C@H]1C2CC3CC1C[C@](O)(C3)C2)c1csc(NCCc2ccccc2)n1` [Example 6, 2-(2-Phenyl-ethylamino)-thiazole-4-carboxylic acid [(E)-5-hydroxy-adamantan-2-yl]-amide], the concentration giving a half-maximal response (EC50) came to 11 nM. This EC50 lies about 360-fold lower than the previous one.
Same read-out and setting: for `O=C(N[C@H]1C2CC3CC1C[C@](O)(C3)C2)c1csc(NCCc2ccccn2)n1` [Example 7, 2-(2-Pyridin-2-yl-ethylamino)-thiazole-4-carboxylic acid [(E)-5-hydroxy-adamantan-2-yl]-amide] the value was 127 nM.
`O=C(N[C@H]1C2CC3CC1C[C@](O)(C3)C2)c1csc(Nc2ccc(C(F)(F)F)cc2)n1` [Example 8, 2-(4-Trifluoromethyl-phenylamino)-thiazole-4-carboxylic acid [(E)-5-hydroxy-adamantan-2-yl]-amide]: the EC50 worked out at 13 nM.
The same measure, in the same setting: the result for `COc1ccc(Nc2nc(C(=O)N[C@H]3C4CC5CC3C[C@](O)(C5)C4)cs2)cc1` [Example 9, 2-(4-Methoxy-phenylamino)-thiazole-4-carboxylic acid [(E)-5-hydroxy-adamantan-2-yl]-amide] reads 2 nM.
In turn, `O=C(N[C@H]1C2CC3CC1C[C@](O)(C3)C2)c1csc(Nc2ccc(Cl)cc2)n1` [Example 10, 2-(4-Chloro-phenylamino)-thiazole-4-carboxylic acid [(E)-5-hydroxy-adamantan-2-yl]-amide] gave an EC50 of 8.7 nM.
The molecule `O=C(N[C@H]1C2CC3CC1C[C@](O)(C3)C2)c1csc(Nc2ccc(F)cc2)n1` [Example 11, 2-(4-Fluoro-phenylamino)-thiazole-4-carboxylic acid [(E)-5-hydroxy-adamantan-2-yl]-amide] came in with an EC50 of 2.7 nM.
In the case of `O=C(N[C@H]1C2CC3CC1C[C@](O)(C3)C2)c1csc(Nc2ccc(Cl)c(Cl)c2)n1` [Example 12, 2-(3,4-Dichloro-phenylamino)-thiazole-4-carboxylic acid [(E)-5-hydroxy-adamantan-2-yl]-amide], the midpoint of the response, the EC50, lay at 112 nM.
Same read-out and setting: the result for `O=C(N[C@H]1C2CC3CC1C[C@](O)(C3)C2)c1csc(NCc2cccnc2)n1` [Example 13, 2-[(Pyridin-3-ylmethyl)-amino]-thiazole-4-carboxylic acid [(E)-5-hydroxy-adamantan-2-yl]-amide] reads 39 nM; that for `O=C(N[C@H]1C2CC3CC1C[C@](O)(C3)C2)c1csc(NCc2ccccc2)n1` [Example 14, 2-Benzylamino-thiazole-4-carboxylic acid [(E)-5-hydroxy-adamantan-2-yl]-amide], 78 nM; that for `O=C(N[C@H]1C2CC3CC1C[C@](O)(C3)C2)c1csc(NCCc2cccnc2)n1` [Example 15, 2-(2-Pyridin-3-yl-ethylamino)-thiazole-4-carboxylic acid [(E)-5-hydroxy-adamantan-2-yl]-amide], 165 nM.
Same read-out and setting: the result for `O=C(N[C@H]1C2CC3CC1C[C@](O)(C3)C2)c1csc(NCCc2ccncc2)n1` [Example 16, 2-(2-Pyridin-4-yl-ethylamino)-thiazole-4-carboxylic acid [(E)-5-hydroxy-adamantan-2-yl]-amide] reads 369 nM; that for `O=C(N[C@H]1C2CC3CC1C[C@](O)(C3)C2)c1cnc(Nc2ccc(Cl)cn2)s1` [Example 17, 2-(5-Chloro-pyridin-2-ylamino)-thiazole-5-carboxylic acid [(E)-5-hydroxy-adamantan-2-yl]-amide], 31 nM; that for `Cc1nc(NCCc2ccccc2)sc1C(=O)N[C@H]1C2CC3CC1C[C@](O)(C3)C2` [Example 18, 4-Methyl-2-phenethylamino-thiazole-5-carboxylic acid [(E)-5-hydroxy-adamantan-2-yl]-amide], 48 nM.

A further test deals with T1, 11βHSD1. In words: Human adipocytes cell based assay (cortisone to cortisol, ELISA). As to conditions: human omental adipocytes, 300 nM cortisone, 24 hours at 37° C. As to the method: Human Adipocytes Cell Based Assay
Cells were ordered from ZenBio, RTP, NC (www.zen-bio.com (OA-1096-3)) pre-plated (96 well). Cell Media was supplied by ZenBio (Omental Adipocyte Medium #OM-AM).
Test compounds were prepared at 10 concentrations (10 μM-0.1 nM). Dilutions were made up in Cell Media. Cell Media from the plate is aspirated and 97 μL was added to the wells.
The plates were incubated for 15 minutes (37° C.).
3 μL of […] cortisone (Sigma #C2755) (300 nM FAC) was added, for a total well volume of 100 μL.
The plates were incubated for 24 hours (37° C.).
The media was harvested from cells.
The samples were then assayed using Cortisol ELISA Kits (R & D Systems #SKGE008). Samples were diluted by a factor of 5. Specific instructions were included in the kit to quantify presence of cortisol in samples through an ELISA assay.
The plates were read on a Spectramax at 450 nm OD.
Usually pIC50 stands for −log10 of the IC50, conventionally taken in molar units. Low readings indicate a large IC50, high ones a small IC50. For `O=C(N[C@H]1C2CC3CC1C[C@](O)(C3)C2)c1csc(Nc2ccc(Cl)cn2)n1` [Example 2, 2-(5-Chloro-pyridin-2-ylamino)-thiazole-4-carboxylic acid [(E)-5-hydroxyadamantan-2-yl]-amide], the negative-log IC50 (pIC50) was 7.72.
